Data reported in ChEMBL document CHEMBL4680341, “Substituted diaryl ether compounds as retinoic acid-related orphan Receptor-γt (RORγt) agonists” (Bioorg Med Chem Lett, 2021).

Columns and labels:
in vitro [1] = conditions: human, liver microsomes
Description: Stability in human liver microsomes assessed as parent compound remaining at 3 uM after 10 mins by mass spectrometric method

in vitro [2] = conditions: rat, liver microsomes
Description: Stability in rat liver microsomes assessed as parent compound remaining at 3 uM after 10 mins by mass spectrometric method

in vitro [3] = conditions: mouse, liver microsomes
Description: Stability in mouse liver microsomes assessed as parent compound remaining at 3 uM after 10 mins by mass spectrometric method

remaining at 10 min, 3 µM (in vitro [1]): 79% | remaining at 10 min, 3 µM (in vitro [2]): 78% | remaining at 10 min, 3 µM (in vitro [3]): 81%
SMILES: CC(C)c1cc(F)cc(Oc2c(Cl)cc(NC(=O)Cc3cccnc3)cc2Cl)c1
